{"source": "patent US20050026849A1", "about": "“Water soluble formulations of digitalis glycosides for treating cell-proliferative and other diseases” (priority 2003, published 2005)", "key": {"[1]": {"assay": "Solubilization in aqueous hydroxypropyl-cyclodextrin solution", "assay_type": "physicochemical", "description": "(§1) 100 milligrams of oleandrin was weighed and placed in a 5 mL scintillation tube. 1.5 mL of absolute ethanol was added to the tube and shaken until the oleandrin was completely dissolved. 5 grams of pyrogen free hydroxypropyl-β-cyclodextrin (sold by, Sigma-Aldrich, Inc., St. Louis, Mo., USA) was weighed on an analytical scale and placed in a graduated cylinder. Water was added with shaking until the volume reached 90 ml. The above ethanolic solution of oleandrin was added to the aqueous solution containing hydroxypropyl-β-cyclodextrin with stirring. A clear solution was obtained. Water was added to the clear solution to make the total volume to 100 mL. Thus, 1 mg oleandrin was effectively solubilized in 1 ml of 5% solution of hydroxypropyl-β-cyclodextrin. The solution was sterile-filtered through a 0.22 μm filter. The suspension was frozen below −40° C. and lyophilized. The lyophilized cake was reconstituted with sterile water for injection prior to further use.\nThe previous experiment was repeated using a 2% solution of hydroxypropyl-β-cyclodextrin prepared as in Example 1. 100 mg of oleandrin was dissolved in 100 mL of water containing 2.5 grams of hydroxypropyl-β-cyclodextrin. The solution was sterile-filtered through a 0.22 μm filter. The solution was frozen below −40° C. and lyophilized. The lyophilized cake was reconstituted with sterile water for injection prior to further use.\nThe experiment in example 1 was repeated using a 100 mg of Odoroside-A instead of oleandrin. 100 mg of Odoroside-A was dissolved in 5 grams of hydroxypropyl-β-cyclodextrin in 100 mL of water. The solution was sterile-filtered through a 0.22 μm filter. The solution was frozen below −40° C. and lyophilized. The lyophilized cake was reconstituted with sterile water for injection prior to further use.\nas §1, with “5mL” for “5 mL”, “1-2” for “1.5”, “2.5” for “5”, “hydroxypropyl-γ-cyclodextrin” for “hydroxypropyl-β-cyclodextrin”, “2.5%” for “5%”, “hydroxypropyl-γ-cyclodextrin.” for “hydroxypropyl-β-cyclodextrin.”\nas §1, with “of Proscillaridin-A” for “of oleandrin”, “tube. 1-2” for “tube. 1.5”, “the Proscillaridin-A” for “the oleandrin”, “dissolved. 2” for “dissolved. 5”, “mg Proscillaridin-A” for “mg oleandrin”, “of 2%” for “of 5%”\nThe previous experiment was repeated using a 5% solution of hydroxypropyl-β-cyclodextrin prepared as in Example 5. […]"}, "[2]": {"system": "primary cultures of tumor cells from patients and a human cell line panel", "conditions": "cited from earlier work"}, "[3]": {"conditions": "oral tablet containing 0.25 mg, humans; cited from earlier work"}, "[4]": {"system": "different human malignant cell lines", "conditions": "non-toxic concentrations; cited from earlier work"}, "[5]": {"assay": "Oleandrin stirred and shaken with water", "assay_type": "physicochemical", "conditions": "10 mg stirred and shaken with 10 ml of water, after 20 minutes", "description": "10 milligrams (mg) of oleandrin was stirred and shaken with 10 ml of water in a test tube."}, "[6]": {"system": "FGF-2 release from PC3 cells", "conditions": "0.1 ng/mL; cited from earlier work"}, "[7]": {"system": "FGF-2 release from DU145 cells", "conditions": "0.1 ng/mL; cited from earlier work"}, "[8]": {"system": "androgen-independent human prostate cancer cell lines", "conditions": "in vitro; cited from earlier work"}, "[9]": {"system": "NF-κB", "conditions": "cited from earlier work"}, "[10]": {"system": "AP-1", "conditions": "induced by TNF and other agents; cited from earlier work"}, "[11]": {"system": "human cancer cells", "conditions": "cited from earlier work"}, "[12]": {"system": "various cancer cell lines", "conditions": "cited from earlier work"}, "[13]": {"conditions": "in vivo; cited from earlier work"}, "[14]": {"conditions": "rapidly dissolving γ-cyclodextrin complex (molar ratio 1:4), oral, dogs; cited from earlier work"}, "[15]": {"conditions": "in 1 ml of 2.5% solution of hydroxypropyl-γ-cyclodextrin"}, "[16]": {"conditions": "in 50 ml of 9.8% solution of hydroxypropyl-β-cyclodextrin, 70-80 degree centigrade"}, "[17]": {"conditions": "in 100 mL of water containing 5 grams of hydroxypropyl-β-cyclodextrin"}}, "data": [{"smiles": "C[C@@H]1O[C@@H](O[C@@H]2C=C3CC[C@@H]4[C@H](CC[C@]5(C)[C@@H](c6ccc(=O)oc6)CC[C@]45O)[C@@]3(C)CC2)[C@H](O)[C@H](O)[C@H]1O", "note": "[Proscillaridin-A, Proscillaridin A, reference compound]", "values": [{"measurement": "amount effectively solubilized", "setting": "[1]; in 1 ml of 2% solution of hydroxypropyl-β-cyclodextrin", "value": 1, "unit": "mg"}, {"measurement": "amount effectively solubilized", "setting": "[1]; [15]", "value": 1, "unit": "mg"}, {"measurement": "amount effectively solubilized", "setting": "[1]; [16]", "value": 100, "unit": "mg"}, {"measurement": "amount dissolved", "setting": "[1]; [17]", "value": 100, "unit": "mg"}, {"measurement": "selective toxicity solid vs hematological tumor cells", "setting": "[2]", "value": "no selective toxicity"}, {"measurement": "bioavailability", "setting": "[3]", "value": "20-30%"}]}, {"smiles": "C[C@H]1O[C@@H](O[C@H]2[C@@H](O)C[C@H](O[C@H]3[C@@H](O)C[C@H](O[C@H]4CC[C@@]5(C)[C@H](CC[C@@H]6[C@@H]5CC[C@]5(C)[C@@H](C7=CC(=O)OC7)CC[C@]65O)C4)O[C@@H]3C)O[C@@H]2C)C[C@H](O)[C@@H]1O", "note": "[digitoxin]", "values": [{"measurement": "selective toxicity solid vs hematological tumor cells", "setting": "[2]", "value": "selective toxicity against solid tumor cells"}, {"measurement": "growth and apoptosis", "setting": "[4]", "value": "inhibits growth and induce apoptosis"}]}, {"smiles": "CO[C@H]1C[C@H](O[C@H]2CC[C@@]3(C)[C@H](CC[C@@H]4[C@@H]3CC[C@]3(C)[C@@H](C5=CC(=O)OC5)[C@@H](OC(C)=O)C[C@]43O)C2)O[C@@H](C)[C@@H]1O", "note": "[oleandrin, 16b-acetoxy-3b-[(2,6 dideoxy-3-0-methyl-a2-L-arabino-hexopyranosyl)oxy]-14-hydroxy-5β, 14β-card-20(22)-enolide]", "values": [{"measurement": "dissolution in water", "setting": "[5]", "value": "Appreciable quantities of compound remained out of solution"}, {"measurement": "amount effectively solubilized", "setting": "[1]; [15]", "value": 1, "unit": "mg"}, {"measurement": "amount effectively solubilized", "setting": "[1]; in 1 ml of 5% solution of hydroxypropyl-β-cyclodextrin", "value": 1, "unit": "mg"}, {"measurement": "amount effectively solubilized", "setting": "[1]; [16]", "value": 100, "unit": "mg"}, {"measurement": "amount dissolved", "setting": "[1]; in 100 mL of water containing 2.5 grams of hydroxypropyl-β-cyclodextrin (called 2% solution)", "value": 100, "unit": "mg"}, {"measurement": "inhibition of FGF-2 release", "setting": "[6]", "value": 45.7, "unit": "%"}, {"measurement": "inhibition of FGF-2 release", "setting": "[7]", "value": 49.9, "unit": "%"}, {"measurement": "induction of apoptosis", "setting": "[8]", "value": "induce apoptosis"}, {"measurement": "TNF-induced activation of NF-κB", "setting": "[9]", "value": "blocked"}, {"measurement": "AP-1 activation", "setting": "[10]", "value": "blocked"}, {"measurement": "cell killing", "setting": "[11]", "value": "able to induce cell killing"}, {"measurement": "anti-cancer activity", "setting": "[12]", "value": "significant anti-cancer activities"}, {"measurement": "time of elimination from the body", "setting": "[13]", "value": "one to two"}]}, {"smiles": "C[C@H]1O[C@@H](O[C@H]2[C@@H](O)C[C@H](O[C@H]3[C@@H](O)C[C@H](O[C@H]4CC[C@@]5(C)[C@H](CC[C@@H]6[C@@H]5C[C@@H](O)[C@]5(C)[C@@H](C7=CC(=O)OC7)CC[C@]65O)C4)O[C@@H]3C)O[C@@H]2C)C[C@H](O)[C@@H]1O", "note": "[digoxin]", "values": [{"measurement": "selective toxicity solid vs hematological tumor cells", "setting": "[2]", "value": "selective toxicity against solid tumor cells"}, {"measurement": "increase of plasma levels", "setting": "[14]", "value": "approximately 5.4 fold"}, {"measurement": "induction of apoptosis", "setting": "[8]", "value": "induce apoptosis"}, {"measurement": "growth and apoptosis", "setting": "[4]", "value": "inhibits growth and induce apoptosis"}]}, {"smiles": "C[C@H]1[C@H](C)CC[C@]2(C(=O)O)CC[C@]3(C)C(=CC[C@@H]4[C@@]5(C)CC[C@H](O)C(C)(C)[C@@H]5CC[C@]43C)[C@H]12", "note": "[ursolic acid]", "values": [{"measurement": "anti-cancer activity", "setting": "[12]", "value": "significant anti-cancer activities"}]}, {"smiles": "CO[C@@H]1C[C@H](O[C@H]2CC[C@@]3(C)[C@H](CC[C@@H]4[C@@H]3CC[C@]3(C)[C@@H](C5=CC(=O)OC5)CC[C@]43O)C2)O[C@H](C)[C@@H]1O", "note": "[Odoroside-A, Odoroside A]", "values": [{"measurement": "amount dissolved", "setting": "[1]; [17]", "value": 100, "unit": "mg"}]}, {"smiles": "CO[C@@H]1C[C@H](O[C@H]2CC[C@@]3(C)[C@H](CC[C@@]45O[C@@]46CC[C@H](C4=CC(=O)OC4)[C@@]6(C)CC[C@H]35)C2)O[C@H](C)[C@@H]1O", "note": "[adynerin]", "values": [{"measurement": "anti-cancer activity", "setting": "[12]", "value": "significant anti-cancer activities"}]}, {"smiles": "C[C@@H]1O[C@@H](O[C@H]2C[C@@H](O)[C@]3(CO)[C@H]4[C@H](O)C[C@]5(C)[C@@H](C6=CC(=O)OC6)CC[C@]5(O)[C@@H]4CC[C@]3(O)C2)[C@H](O)[C@H](O)[C@H]1O", "note": "[Ouabain]", "values": [{"measurement": "induction of apoptosis", "setting": "[8]", "value": "induce apoptosis"}]}]}
